Measured values as given in patent US20180320186A1, “METHOD FOR SITE-SPECIFIC INSERTION OF FOREIGN DNA INTO A GENOME IN AN ANIMAL CELL AND A CELL OBTAINED USING SAME” (INTER-UNIVERSITY RESEARCH INSTITUTE CORPORATION RESEARCH …, priority 2015, published 2018).

Key:
Format in all cases: cell-based, human
[1] = test system: living cells in which a DHC1-mAID-Clover fusion protein is expressed; experiment: Percentage of mitotic cells and fluorescence microscopy (tubulin antibody, SiR-Hoechst) of cells expressing DHC1-mAID-Clover; conditions: 500 μM auxin with 1 μg/mL tetracycline
Procedure: FIG. 12 is a graph showing the percentage of mitotic cells at 18 and 42 hours after treatment, using living cells in which a DHC1-mAID-Clover fusion protein is expressed, untreated and treated with 1 μg/mL of tetracycline alone, or 1 μg/mL of tetracycline and 500 μM of auxin.
The percentage of mitotic cells at 18 and 42 hours after treatment was calculated, using living cells in which a DHC1-mAID-Clover fusion protein is expressed, untreated and treated with 1 μg/mL of tetracycline alone, or 1 μg/mL of tetracycline and 500 μM of auxin (FIG. 12).
In addition, fluorescence microscope observation was carried out after immunostaining with a tubulin antibody and nuclear staining with SiR-Hoechst at 18 hours after treatment for living cells in which a DHC1-mAID-Clover fusion protein is expressed, untreated and treated with 1 μg/mL of tetracycline and 500 μM of auxin (FIG. 13).

[2] = test system: RAD21-mAID-Clover fusion protein; experiment: Western blotting of RAD21-mAID-Clover after auxin treatment (AID method); conditions: 500 μM auxin for 20 hours, HCT116 with or without OsTIR1
Procedure: (§1) In this experiment, wild-type HCT116 cells and HCT 116 cells modified to constitutively express OsTIR1 necessary for an auxin-inducible degron (AID) method were used as materials. Proliferating cells were prepared in a 6-well plate. 0.8 μg of pX330 for cleaving the target portion of RAD21 gene and 0.6 μg of each of the constructed donor vectors having neomycin and hygromycin resistance markers were mixed and transfected into the cells using Fugene HD (available from Promega Corporation). For transfection, DNA and Fugene HD were mixed according to the instruction manual, allowed to stand for 15 minutes and then added dropwise to the medium.
A protein was extracted from clones in which insertions into both alleles were confirmed by genomic PCR, and subjected to Western blotting using a RAD21 antibody and a mAID antibody (right in FIG. 6). […] The RAD21 to which mAID-Clover was not added was detected at 105 kDa. On the other hand, the RAD21-mAID-Clover fusion protein was detected at 145 kDa. As shown in the right side of FIG. 6, in the case where a RAD21 antibody was used, a 105 kDa band was detected in the original HCT116 cells (WT), whereas in the case where mAID-Clover was added to both alleles, a 145 kDa band was detected. In addition, in the case where a mAID antibody was used, only the RAD21 protein having mAID-Clover added thereto was detected.

[3] = test system: RAD21-mAID-Clover fusion protein; experiment: Deconvolution fluorescence microscopy of living cells expressing RAD21-mAID-Clover after auxin treatment; conditions: 500 μM auxin, observed after 90 minutes, HCT116 with or without OsTIR1
Procedure: as §1
In the cells before treatment with auxin (3-indole acetic acid), it was observed that RAD21-mAID-Clover was localized in the cell nucleus, regardless of expression of OsTIR1.

[4] = test system: living cells in which a DHC1-mAID-Clover fusion protein is expressed; experiment: Relative number of cells after treatment of cells expressing DHC1-mAID-Clover; conditions: 500 μM auxin with 2 μg/mL doxycycline; 24, 48 and 72 hours relative to zero hours
Procedure: FIG. 11 is a graph showing the relative number of cells at 24, 48, and 72 hours after treatment with respect to the number of cells at zero hours after treatment, using living cells in which a DHC1-mAID-Clover fusion protein is expressed, untreated and treated with 2 μg/mL of doxycycline alone, or 2 μg/mL of doxycycline and 500 μM of auxin.
The relative number of cells at 24, 48, and 72 hours after treatment was calculated with respect to the number of cells at zero hours after treatment, using living cells in which a DHC1-mAID-Clover fusion protein is expressed, untreated and treated with 2 μg/mL of doxycycline alone, or 2 μg/mL of doxycycline and 500 μM of auxin (FIG. 11).

[5] = test system: DHC1 protein having mAID-Clover added; experiment: Western blotting with DHC1 antibody after doxycycline and auxin treatment; conditions: 500 μM auxin with 2 μg/mL doxycycline for 2, 4, 6, 8, 10 and 24 hours
Procedure: as §1, with “DHC1” for “RAD21”
A protein was extracted from clones in which insertions into both alleles were confirmed by genomic PCR, and subjected to Western blotting using a DHC1 antibody and an OsTIR antibody (right in FIG. 10). In addition, a protein was similarly extracted from the cells treated with 2 μg/mL of doxycycline and 500 μM of auxin (3-indole acetic acid) for 2, 4, 6, 8, 10, and 24 hours, and used for Western blotting.

## O=C(O)Cc1c[nH]c2ccccc12 [auxin, 3-indole acetic acid]
[1]; 18 and 42 hours after treatment
  Percentage of mitotic cells: accumulation of mitotic cells
[1]; 18 hours after treatment
  Chromosomal structure (fluorescence microscopy): a chromosomal structural abnormality occurred
[2]
  Degradation of RAD21-mAID-Clover (Western blotting): disappearance of RAD21-mAID-Clover occurred in OsTIR1-expressing cells
[3]
  Disappearance of RAD21-mAID-Clover from the nucleus (fluorescence microscope): RAD21-mAID-Clover disappeared only in cells expressing OsTIR1
[4]
  Relative number of cells (cell proliferation): cell proliferation was suppressed after 48 hours from the treatment
[5]
  DHC1-mAID-Clover protein level (DHC1 antibody): disappeared with time
